≈ marks a conversion by molar mass, not a printed value.
Legend:
[1] = test system: P. aeruginosa UI-18; assay: MIC determination, P. aeruginosa UI-18; format: cell-based; settings: Pseudomonas aeruginosa, UI18; wild-type; * = arithmetic mean of 2-6 MIC determinations; read-out: MIC (ug/mL) P. aeruginosa UI-18
Description: (§1) MIC determinations: The in vitro antibacterial activity of compounds described in the Examples was evaluated by minimum inhibitory concentration (MIC) testing according to Clinical and Laboratory Standards Institute (CLSI, formerly NCCLS) guidelines. See: Clinical and Laboratory Standards Institute. Methods for Dilution Antimicrobial Susceptibility Tests for Bacteria that Grow Aerobically; Approved Standard-Seventh Edition. CLSI document M7-A7 [ISBN 1-56238-587-9]. Clinical and Laboratory Standards Institute, 940 West Valley Road, Suite 1400, Wayne, Pa. 19087-1898 USA, 2006; also Clinical and Laboratory Standards Institute. Performance Standards for Antimicrobial Susceptibility Testing; Eighteenth Informational Supplement. CLSI document M100-S18 [ISBN1-56238-653-0]. Clinical and Laboratory Standards Institute.
(§2) The following bacterial strains were used:
P. aeruginosa UI-18: Wild-type;

[2] = test system: Staphylococcus aureus ATCC 29213; assay: MIC determination, S. aureus ATCC 29213; format: cell-based; settings: ATCC29213, CLSI quality control reference strain, * = arithmetic mean of 2-6 MIC determinations, read-out: MIC (ug/mL) S. aureus ATCC 29213
Description: as §1, §2
Staphylococcus aureus ATCC 29213: CLSI quality control reference strain; and […]

[3] = test system: Escherichia coli EC-1; assay: MIC determination, E. coli EC-1; format: cell-based; settings: EC1, EC-1: VOGEL, * = arithmetic mean of 2-6 MIC determinations, read-out: MIC (ug/mL) E. coli EC-1
Description: as §1, §2
Escherichia coli EC-1: VOGEL;

[4] = test system: Enterobacter aerogenes; assay: MIC determination, E. aerogenes; format: cell-based; settings: Klebsiella aerogenes; quinolone-resistant, ESBL-expressing clinical isolate; * = arithmetic mean of 2-6 MIC determinations; read-out: MIC (ug/mL) E. aerogenes
Description: as §1, §2
Enterobacter aerogenes: Quinolone-resistant isolate, expresses extended-spectrum beta-lactamases (ESBL), clinical isolate;

[5] = test system: Acinetobacter baumanii/haemolyticus; assay: MIC determination, A. baumanii/haemolyticus; format: cell-based; settings: Acinetobacter baumannii; multidrug-resistant clinical isolate; * = arithmetic mean of 2-6 MIC determinations; read-out: MIC (ug/mL) A. baumanii/haemolyticus
Description: as §1, §2
Acinetobacter baumanii/haemolyticus: Multidrug-resistant clinical isolate;

[6] = test system: Klebsiella pneumoniae; assay: MIC determination, K. pneumoniae; format: cell-based; settings: ciprofloxacin-resistant, ESBL-expressing clinical isolate, * = arithmetic mean of 2-6 MIC determinations, read-out: MIC (ug/mL) K. pneumoniae
Description: as §1, §2
Klebsiella pneumoniae: Ciprofloxacin-resistant isolate, expresses extended-spectrum beta-lactamases (ESBL), clinical isolate;

[7] = test system: P. aeruginosa PAO280; assay: MIC determination, P. aeruginosa PAO280; format: cell-based; settings: Pseudomonas aeruginosa, PAO280, read-out: MIC (ug/mL) P. aeruginosa PAO280
Description: as §1, §2
Pseudomonas aeruginosa PA0280: lacks efflux pumps MexAB-oprM, MexXY and MexZ

[8] = molecular target: T1, Pseudomonas aeruginosa LpxC enzyme (Pseudomonas aeruginosa, UniProt P47205); assay: IC50 assay, LpxC enzyme from P. aeruginosa; format: biochemical; settings: 0.5 nM enzyme, 25° C., pH 8.0, 20 min; ** = average of 2-8 assays
T1 construct: made in house; host or cells: E. coli
T1 sequence (P47205 1-303): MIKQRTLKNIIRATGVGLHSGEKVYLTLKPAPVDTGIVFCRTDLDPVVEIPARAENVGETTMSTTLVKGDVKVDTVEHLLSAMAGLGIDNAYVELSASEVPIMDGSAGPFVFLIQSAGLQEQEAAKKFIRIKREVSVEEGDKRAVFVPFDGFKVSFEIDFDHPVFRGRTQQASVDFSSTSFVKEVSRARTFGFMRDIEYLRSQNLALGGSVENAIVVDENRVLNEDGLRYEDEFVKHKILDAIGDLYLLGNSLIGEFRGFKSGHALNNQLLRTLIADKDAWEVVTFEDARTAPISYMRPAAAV
Description: IC50 assay, LpxC enzyme from P. aeruginosa: IC50 determination in the LpxC enzyme assay was carried out in a similar manner to that described by S. A. Hyland et al., J. Bacteriology 1997, 179, 2029-2037. [See also T. Kline et al., J. Medicinal Chemistry 2002, 45, 3112-3129.] Briefly, Pseudomonas aeruginosa LpxC enzyme (0.5 nM) purified from E. coli-overexpressing bacteria was incubated at 25° C. in a final volume of 25 ul containing 0.5 uM UDP-3-O—(R-3-hydroxydecanoyl)-N—[^3H-acetyl]glucosamine (B. D. Maxwell and J. C. Bronstein, J. Labeled Compounds and Radiopharmaceuticals 2005, 48, 1049-1054), 1 mg/ml BSA, and 50 mM sodium phosphate buffer, pH 8.0 in the presence and absence of inhibitor compound. At the end of 20 min, 90 ul of a pre-mixed 3% suspension of activated charcoal in 100 mM sodium acetate, pH 7.5, was added to stop the enzyme reaction. The contents of the well were transferred to a filter plate and filtered, and an aliquot of the filtrate was quantitated by liquid scintillation spectrometry. A no-enzyme control was subtracted in order to eliminate background counts.

Row | SMILES | MIC [1] [µg/mL] | MIC [2] [µg/mL] | MIC [3] [µg/mL] | MIC [4] [µg/mL] | MIC [5] [µg/mL] | MIC [6] [µg/mL] | MIC [7] [µg/mL] | IC50 [8] [µM]
1 | C[C@@](OCc1ccc(-c2ccccc2)cc1)(C(=O)NO)[C@@H](O)c1ccco1 [Example 13, (2S,3S)-2-(biphenyl-4-ylmethoxy)-3-(2-furyl)-N,3-dihydroxy-2-methylpropanamide] | 32 (≈ 87.1 µM) | > 32 | > 32 | > 32 | > 32 | > 32 | 0.5 (≈ 1.36 µM) | 0.00163
2 | C[C@@](OCc1ccc(-c2ccccc2)cc1)(C(=O)NO)[C@@H](O)c1ccc(CO)o1 [Example 14, (2S,3S)-2-(biphenyl-4-ylmethoxy)-N,3-dihydroxy-3-[5-(hydroxymethyl)-2-furyl]-2-methylpropanamide] | 16 (≈ 40.3 µM) | > 64 | > 64 | > 64 | > 64 | > 64 | 0.5 (≈ 1.26 µM) | 0.000582
3 | C[C@@](OCc1ccc(-c2ccccc2)cc1)(C(=O)NO)[C@@H](O)C1CC1 [Example 15, (2S,3S)-2-(biphenyl-4-ylmethoxy)-3-cyclopropyl-N,3-dihydroxy-2-methylpropanamide] | > 64 | > 64 | > 64 | > 64 | > 64 | > 64 | 32 (≈ 93.7 µM) | 0.0734
4 | C[C@@](OCc1ccc(-c2ccccc2)cc1)(C(=O)NO)[C@@H](O)c1ccno1 [Example 16, (2S,3R)-2-(biphenyl-4-ylmethoxy)-N,3-dihydroxy-3-isoxazol-5-yl-2-methylpropanamide] | 8 (≈ 21.7 µM) | > 64 | 64 (≈ 174 µM) | > 64 | > 64 | > 64 | 0.125 (≈ 0.339 µM) | 0.00079
5 | C[C@@](OCc1ccc(-c2ccccc2)cc1)(C(=O)NO)[C@@H](O)c1ccccn1 [Example 17, (2S,3S)-2-(biphenyl-4-ylmethoxy)-N,3-dihydroxy-2-methyl-3-pyridin-2-ylpropanamide] | 8 (≈ 21.1 µM) | > 64 | 16 (≈ 42.3 µM) | > 64 | 32 (≈ 84.6 µM) | > 64 | 0.25 (≈ 0.661 µM) | 0.0015
6 | Cn1nncc1[C@H](O)[C@](C)(OCc1ccc(-c2ccccc2)cc1)C(=O)NO [Example 19, (2S,3S)-2-(biphenyl-4-ylmethoxy)-N,3-dihydroxy-2-methyl-3-(1-methyl-1H-1,2,3-triazol-5-yl)propanamide] | > 64 | > 64 | > 64 | > 64 | > 64 | > 64 | 2 (≈ 5.23 µM) | 0.00256
7 | C[C@@](OCc1ccc(-c2ccccc2)cc1)(C(=O)NO)[C@@H](O)c1nccs1 [Example 20, (2S,3R)-2-(biphenyl-4-ylmethoxy)-N,3-dihydroxy-2-methyl-3-(1,3-thiazol-2-yl)propanamide] | 16 (≈ 41.6 µM) | > 64 | > 64 | > 64 | > 64 | > 64 | 1 (≈ 2.6 µM) | 0.000726
8 | C[C@@](OCc1ccc(-c2ccccc2)cc1)(C(=O)NO)[C@@H](O)c1cncs1 [Example 21, (2S,3R)-2-(biphenyl-4-ylmethoxy)-N,3-dihydroxy-2-methyl-3-(1,3-thiazol-5-yl)propanamide] | > 64 | > 64 | > 64 | > 64 | > 64 | > 64 | 4 (≈ 10.4 µM) | 0.00823
9 | C[C@@](OCc1ccc(-c2ccccc2)cc1)(C(=O)NO)[C@@H](O)c1ccoc1 [Example 22, (2S,3S)-2-(biphenyl-4-ylmethoxy)-3-(3-furyl)-N,3-dihydroxy-2-methylpropanamide] | > 8 | > 8 | > 8 | > 8 | > 8 | > 8 | 4 (≈ 10.9 µM) | 0.0105
10 | Cc1cc([C@H](O)[C@](C)(OCc2ccc(-c3ccccc3)cc2)C(=O)NO)no1 [Example 23, (2S,3S)-2-(biphenyl-4-ylmethoxy)-N,3-dihydroxy-2-methyl-3-(5-methylisoxazol-3-yl)propanamide] | 1.75 (≈ 4.58 µM) | > 64 | 4 (≈ 10.5 µM) | 27 (≈ 70.6 µM) | 4 (≈ 10.5 µM) | 8 (≈ 20.9 µM) | 0.015 (≈ 0.0392 µM) | 0.000376
11 | COCc1ccc([C@H](O)[C@](C)(OCc2ccc(-c3ccccc3)cc2)C(=O)NO)o1 [Example 24, (2S,3S)-2-(biphenyl-4-ylmethoxy)-N,3-dihydroxy-3-[5-(methoxymethyl)-2-furyl]-2-methylpropanamide] | 32 (≈ 77.8 µM) | > 64 | > 64 | > 64 | > 64 | > 64 | 2 (≈ 4.86 µM) | 0.00128
12 | C[C@@](OCc1ccc(-c2ccccc2)cc1)(C(=O)NO)[C@@H](O)c1cn2ccccc2n1 [Example 25, (2S,3S)-2-(biphenyl-4-ylmethoxy)-N,3-dihydroxy-3-imidazo[1,2-a]pyridin-2-yl-2-methylpropanamide] | 1.67 (≈ 4 µM) | > 64 | 3 (≈ 7.19 µM) | 16 (≈ 38.3 µM) | 32 (≈ 76.7 µM) | 4 (≈ 9.58 µM) | 0.03 (≈ 0.0719 µM) | 0.00138
13 | CCCc1ccc(-c2ccc(CO[C@](C)(C(=O)NO)[C@@H](O)c3cn4ccccc4n3)cc2)cc1 [Example 26, (2S,3S)-N,3-dihydroxy-3-imidazo[1,2-a]pyridin-2-yl-2-methyl-2-[(4′-propylbiphenyl-4-yl)methoxy]propanamide] | 8 (≈ 17.4 µM) | 32 (≈ 69.6 µM) | 1 (≈ 2.18 µM) | 8 (≈ 17.4 µM) | 1 (≈ 2.18 µM) | 4 (≈ 8.7 µM) | 2 (≈ 4.35 µM) | 0.00137
14 | Cc1nc([C@H](O)[C@](C)(OCc2ccc(-c3ccccc3)cc2)C(=O)NO)c(C)o1 [Example 27, (2S,3S)-2-(biphenyl-4-ylmethoxy)-3-(2,5-dimethyl-1,3-oxazol-4-yl)-N,3-dihydroxy-2-methylpropanamide] | > 64 | > 64 | > 64 | > 64 | > 64 | > 64 | 16 (≈ 40.4 µM) | 0.0652
15 | C[C@@](OCc1ccc(-c2ccccc2)cc1)(C(=O)NO)[C@@H](O)c1cc(-c2ccccc2)on1 [Example 28, (2S,3S)-2-(biphenyl-4-ylmethoxy)-N,3-dihydroxy-2-methyl-3-(5-phenylisoxazol-3-yl)propanamide] | 8 (≈ 18 µM) | 16 (≈ 36 µM) | 8 (≈ 18 µM) | > 16 | 8 (≈ 18 µM) | > 16 | 4 (≈ 9 µM) | 0.00143
